Measured values taken from patent US12616203B2, “Use of 3-isoxazolidinones compounds as selective herbicides” (FMC Corporation, priority 2014, dated 2026).

Tests used:
Wild mustard = assay: Ex13 PRE 2,4-DC + diflufenican, % control 28 DAT, Colby; type: in vivo, Sinapis arvensis
Excerpt: Pyroxasulfone (KIH-485, 85%) at 74.3 g ai/ha, pendimethalin (Prowl 3.3EC, 37.4%) at 1200 g ai/ha, or a premix of chlorsulfuron plus metsulfuron-methyl (Report Extra, 75%) at 15.8 g ai/ha were applied as commercial standards. […] Treatments were replicated 3 times and flats were watered after planting before the treatment and lightly watered after treatment application. Thereafter flats were watered and fertilized routinely.

barnyardgrass (BG) = assay: Ex5 PRE greenhouse, % control; type: in vivo, Echinochloa crus-galli; settings: 28 DAT, g ai/ha by row: r10-26 2,4-DC 50/100/200 (3 rows each) + mesotrione 25/50/100 (cycling)
Experimental: Test compositions containing 2,4-DC Example 1C and mesotrione (Callisto® Herbicide, 40% active ingredient, Syngenta) and mixtures of 2-(2,4-dichlorophenyl)methyl-4,4-dimethyl-3-isoxazolidinone and mesotrione, were diluted with water to provide the appropriate test rate concentration.
The test weeds were barnyardgrass (BG) (Echinochloa crus-galli), jimsonweed (PA) (Datura stramonium), velvetleaf (VL) (Abutilon theophrasti), common cockelbur (CC) (Xanthium strumarium) and hairy beggarticks (HB) (Bidens pilosa). Crops included in the evaluation were field corn and sorghum.
For pre-emergence testing, four disposable fiber flats (6″ by 10″) for each rate of application of each herbicide solution were filled with top soil, to which seeds of each species were planted in furrows made by a template pressed on the top of the soil. The furrows with seeds were covered with soil and were watered well before application of the test compounds. Flats designated for treatment were placed in a spray chamber having a static platform and a movable sprayer and height of the spray nozzle was 10.5 inches above the soil level. Once the sprayer was calibrated using water for spray volume of 30 gallons per acre, flats were sprayed with sprayer at a speed to receive a coverage equivalent of 30 gallons per acre.
The application rates are those shown in Table 4 below for the individual herbicidal solutions and the herbicide compositions of the present invention. The pre-emergence flats were immediately placed in the greenhouse and watered lightly after treatment. Thereafter they were regularly watered and fertilized for the duration of the test. The control of weeds and injury to crops was evaluated in each experimental test at 28 days after treatment (DAT). […] Percent control was determined by a method similar to the 0 to 100 rating system disclosed in “Research Methods in Weed Science,” 2nd ed., B. Truelove, Ed.; Southern Weed Science Society; Auburn University, Auburn, Ala., 1977.

Ivyleaf morningglory = assay: Ex17 PRE 2,4 DC + isoxaflutole, % control 28 DAT, Colby; type: in vivo, Ipomoea hederacea
Experimental: In this example a study was conducted to determine weed efficacy and sugarcane injury when 2,4 DC or isoxaflutole are applied either alone or tank-mix as preemergence against the weeds: Ivyleaf morningglory (Ipomoea hederacea, IPOHE), hairy beggartickss (Bidens pilosa, BIDPI), yellow nutsedge (Cyperus esculentus, CYPES), large crabgrass (Digitaria sanguinalis, DIGSA), and redroot pigweed (Amaranthus retroflexus, AMARE). The crop tested in this study was Sugarcane (var. CTC 20).
To determine weed efficacy and sugarcane selectivity, 2,4 DC (SC 36%) and isoxaflutole (Balance Flexx®, 20%) were applied PRE either alone or as tank-mix partners at rates mentioned below. 2,4 DC was applied at 500, 750, and 1000 g ai/ha while isoxaflutole was applied at 80, 100, and 120 g ai/ha. […] Treatments were applied PRE to sugarcane (var. CTC 20), ivyleaf morningglory, hairy beggarticks, yellow nutsedge, large crabgrass, and redroot pigweed. […] Soil was watered before application and watered lightly after application. Flats were watered and fertilized routinely after treatment application.

SMILES: CC1(C)CON(Cc2ccc(Cl)cc2Cl)C1=O [2,4-DC, 2-(2,4-dichlorophenyl)methyl-4,4-dimethyl-3-isoxazolidinone]
- X (Wild mustard; 2,4-DC alone 125 g ai/ha): 10%
- X (Wild mustard; 2,4-DC alone 170 g ai/ha): 15%
- X (Wild mustard; 2,4-DC alone 210 g ai/ha): 26%
- X (Wild mustard; 2,4-DC alone 250 g ai/ha): 23%
- % Control BG (barnyardgrass (BG); r28-30 2,4-DC 50/100/200, r31-33 mesotrione 25/50/100, 50 g ai/ha): 97%
- % Control BG (barnyardgrass (BG); r28-30 2,4-DC 50/100/200, r31-33 mesotrione 25/50/100, 100 g ai/ha): 99%
- X (Ivyleaf morningglory; 2,4-DC alone 500 g ai/ha): 67%
- X (Ivyleaf morningglory; 2,4-DC alone 750 g ai/ha): 78%
- X (Ivyleaf morningglory; 2,4-DC alone 1000 g ai/ha): 88%
